This is an account of results in US20250221957A1, “PS[…] AND THEIR USE FOR TREATING […] AND NE[…] DISORDERS” (Transcend Therapeutics, Inc., priority 2021, published 2025).

Each structure is given as a SMILES string.

Data set [1] deals with patients with a primary diagnosis of PTSD. The experiment in a line: Methylone PTSD case series with long-term follow-up (Example 5): CGI-I and safety. Format: in vivo, human. The text has this: The patients were not given structured psychotherapy in conjunction with methylone treatment, which differs from recent studies of MDMA that emphasize the importance of a manualized psychedelic-assisted psychotherapy model.
No protectedhealth information was disclosed, and no consent was obtained from patients for use of their archival data. Case narratives were systematically compiled from data collected as part of routine clinical work. Diagnoses were confirmed by an experienced clinician using semi-structured interviews. Baseline symptom severity was evaluated using the Clinical Global Impressions Scale-Severity ([…]). Symptom improvement was evaluated using the Clinical Global Impressions Scale-Improvement (CGI-I) following dosing. […] Because these case narratives were examined retrospectively from routine clinical care records, and not gathered prospectively in a research study, more specific validated rating scales for assessing PTSD symptoms were not available. Additionally, follow-up varied, with the length of follow-up ranging from one week (Case 2) to 15 years (Case 16).
Dosing summary: Methylone was administered orally. Other medications were not changed during methylone treatment. […] In several cases, treatment was continued and, in some cases, the dose was further escalated in later sessions (see Table 5). Booster doses were included for 19 patients in one or more of the sessions. Starting doses were between 100 and 270 mg, and these as well as booster doses were selected based on clinical judgement.

The target of data set [2] is serotonin (5HT) transporter (Homo sapiens, UniProt P31645). The experiment in a line: Radioligand binding, [3H] citalopram.
Sequence of serotonin (5HT) transporter (P31645 whole entry): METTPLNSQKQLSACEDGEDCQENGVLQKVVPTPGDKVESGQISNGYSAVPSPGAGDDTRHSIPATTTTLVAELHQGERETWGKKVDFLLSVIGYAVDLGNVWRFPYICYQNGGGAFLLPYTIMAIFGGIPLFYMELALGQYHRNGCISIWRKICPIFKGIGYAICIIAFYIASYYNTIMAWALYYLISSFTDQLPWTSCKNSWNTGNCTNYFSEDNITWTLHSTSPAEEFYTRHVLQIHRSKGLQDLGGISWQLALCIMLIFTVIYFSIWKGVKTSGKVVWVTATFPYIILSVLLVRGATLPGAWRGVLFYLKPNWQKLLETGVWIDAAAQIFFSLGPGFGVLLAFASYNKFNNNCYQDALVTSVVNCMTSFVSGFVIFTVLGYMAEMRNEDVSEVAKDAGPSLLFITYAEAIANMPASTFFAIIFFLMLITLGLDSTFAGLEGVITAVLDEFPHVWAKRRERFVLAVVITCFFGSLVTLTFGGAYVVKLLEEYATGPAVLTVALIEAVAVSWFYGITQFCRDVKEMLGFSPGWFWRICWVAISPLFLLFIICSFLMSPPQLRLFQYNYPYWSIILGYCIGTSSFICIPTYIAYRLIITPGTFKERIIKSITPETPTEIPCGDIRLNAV
Data set [3] concerns the target norepinephrine (NE) transporter (Homo sapiens, UniProt P23975). The data set is described as follows: Radioligand binding, [3H] nisoxetine.
The test system of another data set is mice. The data set is described as follows: Fear extinction paradigm, mouse model of PTSD. Format: in vivo. The text has this: (FIG. 9A) Schematic of experimental design. A single CS-US (tone-shock) pairing on day 1 was followed by 6 CS presentations in a novel context (context B). […] On day 3, the time spent freezing to the CS was quantified. […] (FIG. 9C) No locomotor changes were observed on day 3 (t(26)=1.073, p>0.05). Data are mean +/− SEM.
FIGS. 10A-10B: MBDB improves fear extinction in a mouse model of PTSD. A single CS-US (tone-shock) pairing on day 1 was followed by 6 conditioned stimulus (CS) presentations in a novel context (context B). MBDB or saline vehicle was injected 30 min prior to extinction training on day 2. The time spent freezing to the CS was quantified on […]. […] Data are mean +/− SEM. N=10 for MBDB group (5 mg/kg, IP) and N=16 for saline control group. **p<0.01 vs. vehicle control group.
Effective PTSD treatments facilitate the disassociation between a traumatic memory and the patient's fear response, making cues for the traumatic memory evoke less of a fear response. This is modeled in the mouse fear extinction paradigm (see FIG. 9A) which takes place over 3 days. On day 1 (fear conditioning), mice are trained to acquire a “traumatic memory,” namely associating the conditioned stimulus (CS, tone) to the unconditioned stimulus (US, foot shock). On day 2 (extinction training), they are trained to forget the traumatic memory association by presenting the CS 6 times (with no US) in a novel environment. On day 3 (extinction recall), the mice are “asked” if that tone (CS) still elicits a fearful response, as measured by the time spent freezing when the tone is presented. Less time freezing means better extinction recall. Drugs that improve extinction recall reduce freezing time on day 3, and, therefore, show potential as a PTSD treatment.

For the next data set, the system named is rats. The data set is described as follows: Open field test (OFT). The data set is classed as in vivo, rat. The settings on record: single methylone dose 5 or 15 mg/kg IP, 30 minutes before testing. The method, then:
Data are mean +/− SEM. N=6 per group. * p<0.05; **p<0.01 vs. vehicle control group.
Method: Consecutive beam breaks and/or video-tracking of time spent in the center versus periphery of the open field are measured. Also measured are parameters such as distance traveled and ambulatory activity (horizontal and vertical) for the duration of the test session.
The open field test (OFT) capitalizes on a rodent's innate fear of open spaces to assess anxiety-like behavior. More time spent in the center of an open field reflects an anxiolytic (anti-anxiety) effect.

For data set [4], the target named is T1, serotonin transporter (SERT) (Rattus norvegicus, UniProt P31652).
T1 construct: from tissue; host or cells: rat brain synaptosomes
T1 sequence (P31652 whole entry): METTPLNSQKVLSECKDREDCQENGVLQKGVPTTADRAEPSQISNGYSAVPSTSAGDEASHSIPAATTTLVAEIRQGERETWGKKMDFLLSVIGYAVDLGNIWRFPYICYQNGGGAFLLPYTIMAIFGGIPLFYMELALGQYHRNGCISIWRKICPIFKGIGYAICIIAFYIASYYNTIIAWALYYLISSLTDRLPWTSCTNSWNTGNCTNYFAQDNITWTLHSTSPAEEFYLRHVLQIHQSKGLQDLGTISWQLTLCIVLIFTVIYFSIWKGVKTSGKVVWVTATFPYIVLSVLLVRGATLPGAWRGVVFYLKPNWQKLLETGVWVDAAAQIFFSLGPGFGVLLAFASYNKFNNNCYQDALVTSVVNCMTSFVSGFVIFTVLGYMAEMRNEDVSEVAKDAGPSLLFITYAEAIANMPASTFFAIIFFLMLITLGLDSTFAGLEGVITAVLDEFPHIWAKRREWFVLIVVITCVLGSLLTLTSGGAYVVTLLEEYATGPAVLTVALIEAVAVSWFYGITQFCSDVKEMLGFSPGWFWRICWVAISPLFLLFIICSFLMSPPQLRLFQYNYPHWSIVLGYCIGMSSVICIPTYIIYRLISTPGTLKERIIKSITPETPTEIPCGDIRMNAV
The experiment in a line: [3H]5HT uptake saturation in rat brain synaptosomes with or without methylone. The data set is classed as biochemical.

For data set [5], the target named is vesicular monoamine transporter 2 (VMAT2) (Homo sapiens, UniProt Q05940). The settings on record: cited from earlier work.
Sequence of vesicular monoamine transporter 2 (VMAT2) (Q05940 whole entry, species assumed): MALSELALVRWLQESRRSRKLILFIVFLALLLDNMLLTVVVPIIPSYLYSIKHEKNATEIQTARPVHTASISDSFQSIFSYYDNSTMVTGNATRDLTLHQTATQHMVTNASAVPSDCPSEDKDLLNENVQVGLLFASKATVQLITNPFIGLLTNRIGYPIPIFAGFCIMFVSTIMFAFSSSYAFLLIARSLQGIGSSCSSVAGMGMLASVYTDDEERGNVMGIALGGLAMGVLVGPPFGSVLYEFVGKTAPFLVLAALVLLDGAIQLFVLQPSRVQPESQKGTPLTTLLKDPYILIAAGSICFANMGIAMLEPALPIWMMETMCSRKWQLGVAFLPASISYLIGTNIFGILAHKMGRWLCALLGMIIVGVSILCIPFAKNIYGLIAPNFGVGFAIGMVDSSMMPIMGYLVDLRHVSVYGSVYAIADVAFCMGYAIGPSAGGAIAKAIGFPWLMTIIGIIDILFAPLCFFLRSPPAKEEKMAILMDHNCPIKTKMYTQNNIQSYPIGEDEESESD
The conditions of data set [6]: cited from earlier work.
Setting [7] is: rats, intraperitoneal administration.

Sequence of norepinephrine (NE) transporter (P23975 whole entry): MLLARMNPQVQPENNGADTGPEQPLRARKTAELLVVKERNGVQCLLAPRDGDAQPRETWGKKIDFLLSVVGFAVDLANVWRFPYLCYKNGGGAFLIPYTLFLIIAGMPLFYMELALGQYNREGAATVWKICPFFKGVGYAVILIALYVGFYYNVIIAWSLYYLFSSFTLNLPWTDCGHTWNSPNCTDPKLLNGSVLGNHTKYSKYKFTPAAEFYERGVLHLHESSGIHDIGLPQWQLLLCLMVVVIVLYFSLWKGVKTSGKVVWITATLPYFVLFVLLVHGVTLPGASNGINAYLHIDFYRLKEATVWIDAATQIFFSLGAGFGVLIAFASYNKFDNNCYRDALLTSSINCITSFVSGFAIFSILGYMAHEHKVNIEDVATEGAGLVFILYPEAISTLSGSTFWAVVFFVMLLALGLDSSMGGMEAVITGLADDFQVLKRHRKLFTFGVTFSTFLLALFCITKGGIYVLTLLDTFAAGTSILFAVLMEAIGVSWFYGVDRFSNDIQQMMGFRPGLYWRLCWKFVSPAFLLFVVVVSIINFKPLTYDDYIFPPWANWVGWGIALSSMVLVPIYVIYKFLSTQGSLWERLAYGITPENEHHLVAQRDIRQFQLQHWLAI

In general, half-life refers to the time in which the quantity being followed falls by half. With `CNC(C)C(=O)c1ccc2c(c1)OCO2` (centres unmarked) [methylone, 3,4-methylenedioxy-N-methylcathinone], in data set [1] (21 PTSD patients), the “patients achieving CGI-I much improved or very much improved” value is recorded as 81% and the tolerability entry is “generally well tolerated”. Further, the “patients reporting a durable effect” value in data set [1] (durability captured for 17 of 21 patients) came to 16. Moreover, the “total adverse events noted” value in data set [1] (in three of the 21 patients, none severe) was “four”. For the same molecule, the “patients with durable effect >six months” value in data set [1] (in vivo) was found to be 11. Also, the “patients achieving a CGI-I of 1 or 2” value in data set [1] (of 21 PTSD patients) is listed as 17. Also, the “patients achieving CGI-I scores of 1 or 2” value in data set [1] (patients who received only a single dose of methylone (n=9)) was 89%. Also, the “patients with initial improvement after the initial session” value in data set [1] (patients with multiple methylone dosing sessions (n=12)) is recorded as 83%. Moreover, the “binding at the 5HT transporter” value in data set [2] is reported as “confirmed methylone binding”. Besides, the “binding at the NE transporter” value in data set [3] is “confirmed methylone binding”. The “enhancement of fear extinction recall compared to saline controls (reduced freezing on day 3)” value in the data set on mice (methylone 30 mg/kg IP 30 min prior to extinction training) is reported as roughly 60%. Besides, in the data set with mice (methylone 30 mg/kg IP, day 3), the “locomotion during the testing session” value is “no differences between groups”. The “time spent in the center of the open field compared to vehicle” value in the data set on rats is given as “significantly increases”. For the same molecule, the “type of interaction at the SERT” value in data set [4] is listed as “competitive”. Besides, in data set [4] (in the presence of methylone), the “Bmax of [3H]5HT uptake” value is “no decrease” and the “Kd of [3H]5HT uptake” value is on record as “right shifted”. In data set [5], the “affinity for VMAT2 lower than that of MDMA” value is reported as “about 13 ×”. Besides, in data set [6] (rat, in vivo), the “half-life shorter than MDMA” value is recorded as greater than 50%. Also, in data set [6] (setting [7]), the half-life was 1 to 2 h; the “time of peak brain and serum concentration” value is 15 to 30 min.
